# Where two headings read alike, the source gives them in different places.
# Experiments:
# [1] = acid counterion; cited from earlier work
# Thermodynamic solubility = assay type: physicochemical; conditions: for solubility thermodynamic at 24 h: thermodynamic from solid, ambient temperature, read-out: Concentration (thermodynamic solubility)
# Procedure: Thermodynamic solubility studies were carried out as follows: 10 mg of prepared salts were suspended in pH 1, 4.5, 6.8 and un-buffered water (300 μL). The pH of the slurries was measured and adjusted accordingly using either 0.2M HCl solution or 0.2M sodium hydroxide solution. The slurries were agitated for 24 hours at ambient temperature using an incubator shaker.
# [2] = Hydration screen (acetone/water mixtures of various water activities); assay type: physicochemical; conditions: ambient
# Procedure: Hydration screen was carried out as follows: 10 mg of prepared salts were suspended in several acetone/water mixtures of various water activities (low: aw=0.281, medium: aw=0.776 and high: aw=0.919) and agitated at ambient temperatures for 24 hr. Any recovered solids were submitted for XRPD analysis to determine any changes to form.
# [3] = Salt stability studies (40° C./75% RH for 1 week, XRPD); assay type: physicochemical
# Procedure: Recovered salts were placed in an oven at 40° C./75% RH for 1 week, and the resultant materials were analyzed by XRPD to determine any changes to form or crystallinity.
# [4] = 1 week stability tests (40° C./75% RH, 80° C., ambient light; XRPD and UPLC); assay type: physicochemical
# [5] = Dynamic vapor sorption (DVS); assay type: physicochemical
# Procedure: Approximately, 10 mg of sample was placed into a mesh vapor sorption balance pan and loaded into a DVS-1 dynamic vapor sorption balance by Surface Measurement Systems. The sample was subjected to a ramping profile from 40-90% relative humidity (RH) at 10% increments, maintaining the sample at each step until a stable weight had been achieved (99.5% step completion). After completion of the sorption cycle, the sample was dried using the same procedure to 0% RH and then a second sorption cycle back to 40% RH. The weight change during the sorption/desorption cycles were plotted, allowing for the hygroscopic nature of the sample to be determined. XRPD analysis was then carried out on any solid retained.
# [6] = Salt disproportionation studies; assay type: physicochemical; conditions: deionized water, 24 h, ambient temperature
# Procedure: Salt disproportionation studies were carried out as follows: 20 mg of prepared salts were weighed into a vial and 0.5 mL of deionized water was added. The samples were then agitated for 24 h at ambient temperature. The pH of the samples was taken pre- and post-agitation. Any solids recovered were submitted for XRPD analysis to determine any changes to form.
# [7] = Solvent solubility of Compound 1 free base (stepwise solvent addition to amorphous material); assay type: physicochemical; conditions: 40 °C, thermodynamic from solid, read-out: Approx. Solubility
# Procedure: A solid Compound 1 was obtained as follows. A […] of solution containing about 330 mg of Compound 1 in warm 1,4-dioxane was divided between 33, 2 mL glass vials (1.5 mL in each). The solutions were frozen and freeze-dried by lyophilization overnight. The resulting material was then analyzed by XRPD to confirm mostly amorphous material.
# Approximately 10 mg of amorphous Compound 1 was produced in 32×2 mL glass vials from freeze drying and 100 μL of the appropriate solvent system was added to the appropriate vial. Between each addition, the mixture was checked for dissolution and if no dissolution was apparent, the mixture was heated to about 40° C. and checked again. This procedure was continued until dissolution was observed or until 2 mL had been added (to the compound concentration of <5 mg/mL).
compound,measurement,setting,value
O=C(O)CNC(=O)c1ccccc1 [Hippuric acid],pKa 1,[1],3.55
C[C@@H]1CCc2ncc(F)cc2[C@H]2CCCN2c2ccn3ncc(c3n2)C(=O)N1.O=C(O)CC(O)(CC(=O)O)C(=O)O [Compound 1 citrate],solubility thermodynamic at 24 h,"Thermodynamic solubility; aqueous buffer, pH 4.5 buffer",300 µg/mL
same,solids recovered after thermodynamic solubility study (XRPD),Thermodynamic solubility; pH 1,poorly crystalline solids
same,thermodynamic solubility (in words),Thermodynamic solubility; pH 1,high solubility
same,solids recovered after thermodynamic solubility study (XRPD),Thermodynamic solubility; pH 4.5,Compound 1 citrate
same,thermodynamic solubility (in words),Thermodynamic solubility; pH 4.5,lower solubility
same,solids recovered after thermodynamic solubility study (XRPD),Thermodynamic solubility; pH 6.8,poorly crystalline free base
same,thermodynamic solubility (in words),Thermodynamic solubility; pH 6.8,lower solubility
same,solubility thermodynamic at 24 h,"Thermodynamic solubility; pH 6.8 potassium phosphate buffer, aqueous buffer, pH 6.8 buffer",900 µg/mL
same,solubility thermodynamic at 24 h,"Thermodynamic solubility; simulated gastric fluid, pH 1 buffer",18600 µg/mL
same,solubility thermodynamic at 24 h,Thermodynamic solubility; un-buffered water,21000 µg/mL
same,solids recovered after thermodynamic solubility study (XRPD),Thermodynamic solubility; un-buffered water,Compound 1 citrate
same,thermodynamic solubility (in words),Thermodynamic solubility; un-buffered water,highly soluble
same,solid recovered from hydration screen (XRPD),"[2]; high water activity aw=0.919, 24 hr",poorly crystalline citrate salt
same,solid recovered from hydration screen (XRPD),"[2]; low water activity aw=0.281, 24 hr",poorly crystalline citrate salt
same,solid recovered from hydration screen (XRPD),"[2]; medium water activity aw=0.776, 24 hr","unknown form, referred to here as Form B"
same,changes to form or crystallinity after stability conditions (XRPD),[3]; salt recovered from TBME,a decrease to crystallinity but no change to form
same,changes to form or crystallinity after stability conditions (XRPD),[3]; salt recovered from acetone,a decrease to crystallinity but no change to form
same,change in purity after 1 week stability test (UPLC),[4]; 40° C./75% RH,no change to purity
same,change to form after 1 week stability test (XRPD),[4]; 40° C./75% RH,no change to form
same,change in purity after 1 week stability test (UPLC),[4]; 80° C.,no change to purity
same,change to form after 1 week stability test (XRPD),[4]; 80° C.,no change to form
same,change in purity after 1 week stability test (UPLC),[4]; ambient light,no change to purity
same,change to form after 1 week stability test (XRPD),[4]; ambient light,no change to form
same,hygroscopicity by DVS (in words),[5]; DVS humidity conditions,low hygroscopicity
same,change in crystalline form after exposure to DVS conditions (post-DVS XRPD),[5]; after DVS cycle,no changes in crystalline form
same,mass uptake (DVS),[5]; at 90% RH,around 1.8%
same,material recovered after salt disproportionation study (XRPD),[6],poorly crystalline citrate salt
"O=C(O)[C@H](O)[C@@H](O)[C@H](O)[C@H](O)CO [D-Gluconic acid (50% in water), D-Gluconic acid]",pKa 1,[1],3.76
"C[C@@H]1CCc2ncc(F)cc2[C@H]2CCCN2c2ccn3ncc(c3n2)C(=O)N1 [Compound 1, (6R,15R)-9-fluoro-15-methyl-2,11,16,20,21,24-hexaazapentacyclo[16.5.2.0^2,6.0^7,12.0^21,25]pentacosa-1 (24),7,9,11,18(25), 19,22-heptaen-17-one]",solubility,"[7]; organic solvent or mixture, in 1-Propanol",> 100000 µg/mL
same,solubility,"[7]; organic solvent or mixture, in 2-Methyl THF",< 5000 µg/mL
same,solubility,"[7]; organic solvent or mixture, in Cyclohexane",< 5000 µg/mL
same,solubility,"[7]; organic solvent or mixture, in Cyclopentylmethyl ether",< 5000 µg/mL
same,solubility,"[7]; organic solvent or mixture, in Dichloromethane",> 100000 µg/mL
same,solubility,"[7]; organic solvent or mixture, in Diisopropyl ether",< 5000 µg/mL
same,solubility,"[7]; organic solvent or mixture, in Dimethylformamide",> 100000 µg/mL
same,solubility,"[7]; organic solvent or mixture, in Ethyl acetate",< 5000 µg/mL
same,solubility,"[7]; organic solvent or mixture, in Heptane",< 5000 µg/mL
same,solubility,"[7]; organic solvent or mixture, in Isobutyl acetate",< 5000 µg/mL
same,solubility,"[7]; organic solvent or mixture, in Isopropyl acetate",< 5000 µg/mL
same,solubility,"[7]; organic solvent or mixture, in N,N-Dimethylacetamide",> 100000 µg/mL
same,solubility,"[7]; organic solvent or mixture, in N-Methylpyrrolidone",> 100000 µg/mL
same,solubility,"[7]; organic solvent or mixture, in TBME:Heptane (60:40 v/v)",< 5000 µg/mL
same,solubility,"[7]; organic solvent or mixture, in TBME",< 5000 µg/mL
same,solubility,"[7]; organic solvent or mixture, in Toluene",< 5000 µg/mL
same,solubility,[7]; in Water,< 5000 µg/mL
same,change in purity after 1 week stability test (UPLC),[4]; 40° C./75% RH,no change in purity
same,change to form after 1 week stability test (XRPD),[4]; 40° C./75% RH,no change to form
same,average purity after 1 week stability test (UPLC),[4]; 40° C./75% RH (relative humidity test),99.2%
same,average purity after 1 week stability test (UPLC),[4]; 80° C.,99.3%
same,change in purity after 1 week stability test (UPLC),[4]; 80° C.,no change in purity
same,change to form after 1 week stability test (XRPD),[4]; 80° C.,no change to form
same,average purity after 1 week stability test (UPLC),[4]; ambient light,99.2%
same,change in purity after 1 week stability test (UPLC),[4]; ambient light,no change in purity
same,change to form after 1 week stability test (XRPD),[4]; ambient light,no change to form
C[C@@H]1CCc2ncc(F)cc2[C@H]2CCCN2c2ccn3ncc(c3n2)C(=O)N1 [Compound 1 edisylate],changes to form or crystallinity after stability conditions (XRPD),[3]; salt recovered from isopropanol,become amorphous
C[C@@H]1CCc2ncc(F)cc2[C@H]2CCCN2c2ccn3ncc(c3n2)C(=O)N1.Cc1ccc(S(=O)(=O)O)cc1 [Compound 1 tosylate],changes to form or crystallinity after stability conditions (XRPD),[3]; salt recovered from acetone,become amorphous
C[C@@H]1CCc2ncc(F)cc2[C@H]2CCCN2c2ccn3ncc(c3n2)C(=O)N1.O=C(O)C[C@H](O)C(=O)O [Compound 1 L-malate],changes to form or crystallinity after stability conditions (XRPD),[3]; salt recovered from TBME,no change to crystallinity and form
O=C[C@H](O)[C@@H](O)[C@H](O)[C@H](O)C(=O)O [D-Glucuronic acid],pKa 1,[1],3.18
C[C@@H]1CCc2ncc(F)cc2[C@H]2CCCN2c2ccn3ncc(c3n2)C(=O)N1.O=C(O)/C=C/C(=O)O [Compound 1 fumarate],changes to form or crystallinity after stability conditions (XRPD),[3]; salt recovered from acetone,"a slight decrease to crystallinity however, no change to form"
C[C@@H]1CCc2ncc(F)cc2[C@H]2CCCN2c2ccn3ncc(c3n2)C(=O)N1.O=C(O)C(=O)O [Compound 1 oxalate],changes to form or crystallinity after stability conditions (XRPD),[3]; salt recovered from ethanol,a change in crystallinity and form
same,changes to form or crystallinity after stability conditions (XRPD),[3]; salt recovered from methanol,"no change to crystallinity however, changes to form were seen"
O=S(=O)(O)CCO [2-Hydroxy ethanesulfonic acid],pKa 1,[1],1.66
CCS(=O)(=O)O [Ethane sulfonic acid],pKa 1,[1],−2.05
C[C@@H]1CCc2ncc(F)cc2[C@H]2CCCN2c2ccn3ncc(c3n2)C(=O)N1.O=C(O)CCC(=O)O [Compound 1 succinate],changes to form or crystallinity after stability conditions (XRPD),[3]; salt recovered from acetone,a decrease in crystallinity but no change to form
